Laboratory results reported in publication PMC11726654, “Discovery of MDI-114215: A Potent and Selective LIMK Inhibitor To Treat Fragile X Syndrome” (Journal of Medicinal Chemistry, 2024).
≈ marks a conversion by molar mass, not a printed value.

Legend:
[1] = target: LIMK2 (Homo sapiens, UniProt P53671); assay: RapidFire mass spectrometry kinase assay (cofilin phosphorylation); format: biochemical; details: non-phosphorylated LIMK2; mean ± SEM; read-out: Enzymatic (RapidFire) pIC50 LIMK2 (converted)
[2] = Microsomal stability; details: for microsomal CLint at 2 μM / microsomal CLint at 0.5 h, 2 µM: human, microsomes, pH 7.4
[3] = target: LIMK1 (Homo sapiens, UniProt P53667); assay: RapidFire mass spectrometry kinase assay (cofilin phosphorylation); format: biochemical; details: non-phosphorylated LIMK1; mean ± SEM; read-out: Enzymatic (RapidFire) pIC50 LIMK1 (converted)
[4] = Microsomal stability; details: for microsomal CLint at 2 μM / microsomal CLint at 0.5 h, 2 µM: rat, microsomes, pH 7.4; for Microsomal CLint Rat: rat microsomes, 2 μM compound
[5] = Thermodynamic solubility; details: PBS, pH 7
[6] = In vivo PK, p.o./i.p. dosing; details: male, Sprague-Dawley, rat, plasma
[7] = CNS penetration study; details: male, Sprague-Dawley, rat, brain/plasma, iv, 1 mg/kg
[8] = In vivo PK, i.v. dosing; details: male, Sprague-Dawley, rat, plasma; for CLint scaled: intravenous; for AUC(0-inf) at 1 h / Vd at 1 h / half-life at 1 h: iv
Procedure: A satellite group of three animals were also administered i.v. test compound (dosed at 1 mg/kg in 10% DMSO/20% Cremophor/70% saline) and after 1 h, the animals culled and brain samples immediately prepared by homogenization in H2O and protein precipitation in MeCN. Bioanalysis on plasma and brain samples were performed using a UHPLC-tandem mass spectrometry using electrospray ionization.

[9] = Unbound fraction in brain and plasma; format: in vitro ADME; details: for fubrain: unbound fraction in brain; for fuplasma: unbound fraction in plasma
[10] = Caco-2 permeability and efflux; details: human, Caco-2
[11] = system: p-cofilin Ser3 levels in SH-SY5Y cells; assay: AlphaLISA SureFire p-cofilin assay; format: cell-based; details: Homo sapiens, 2 h, read-out: alphaLISA pIC50 p-cofilin (converted)
Procedure: The AlphaLISA assay for detection of p-cofilin Ser3 levels was followed as previously described.[14] […] Cells were placed in the incubator for 2 h, after which the media was removed and the cells were lysed using 50 μL AlphaLISA 1× lysis buffer (PerkinElmer, USA) containing protease inhibitor cocktail (Sigma/Merck, Dorset, UK) and Pierce phosphatase inhibitor cocktail (Thermo Fisher Scientific, UK). The cell lysate was then transferred to a clean, flat-bottom, white 384-well plate, to which 5 μL/well of acceptor bead solution consisting of Reaction buffer 1, Reaction buffer 2, Activation Buffer and Acceptor Beads from pCofilin SureFire Ultra assay kit (PerkinElmer, USA, cat# ALSU-PCOF-A500) was added under dim light. After incubation at RT for 1 h, 5 μL/well of donor solution consisting of Dilution Buffer and Donor beads was added. The plate was read on a Pherastar reader (BMD Labtech Ltd., Aylesbury, UK) using an AlphaLISA cartridge and AlphaLISA plate settings.

[12] = system: Caco-2; assay: Caco-2 permeability and efflux; details: efflux ratio

Chain of LIMK2 (P53671 whole entry): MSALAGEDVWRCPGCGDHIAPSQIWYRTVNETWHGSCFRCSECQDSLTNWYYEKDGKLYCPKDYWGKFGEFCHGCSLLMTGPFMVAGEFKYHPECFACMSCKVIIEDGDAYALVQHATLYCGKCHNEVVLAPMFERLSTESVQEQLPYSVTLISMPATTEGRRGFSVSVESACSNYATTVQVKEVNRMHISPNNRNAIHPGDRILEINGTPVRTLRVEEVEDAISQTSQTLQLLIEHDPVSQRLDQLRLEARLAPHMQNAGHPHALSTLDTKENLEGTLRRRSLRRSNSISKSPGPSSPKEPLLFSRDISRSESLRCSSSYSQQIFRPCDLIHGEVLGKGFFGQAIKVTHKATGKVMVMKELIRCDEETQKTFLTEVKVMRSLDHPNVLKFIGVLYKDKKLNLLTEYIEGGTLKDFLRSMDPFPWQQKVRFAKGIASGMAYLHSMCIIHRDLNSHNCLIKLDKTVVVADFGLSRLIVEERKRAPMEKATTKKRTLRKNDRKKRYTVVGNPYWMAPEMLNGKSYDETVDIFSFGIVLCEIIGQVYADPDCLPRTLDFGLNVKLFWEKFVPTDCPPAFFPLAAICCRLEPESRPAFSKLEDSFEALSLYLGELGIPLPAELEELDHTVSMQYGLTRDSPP
Chain of LIMK1 (P53667 whole entry): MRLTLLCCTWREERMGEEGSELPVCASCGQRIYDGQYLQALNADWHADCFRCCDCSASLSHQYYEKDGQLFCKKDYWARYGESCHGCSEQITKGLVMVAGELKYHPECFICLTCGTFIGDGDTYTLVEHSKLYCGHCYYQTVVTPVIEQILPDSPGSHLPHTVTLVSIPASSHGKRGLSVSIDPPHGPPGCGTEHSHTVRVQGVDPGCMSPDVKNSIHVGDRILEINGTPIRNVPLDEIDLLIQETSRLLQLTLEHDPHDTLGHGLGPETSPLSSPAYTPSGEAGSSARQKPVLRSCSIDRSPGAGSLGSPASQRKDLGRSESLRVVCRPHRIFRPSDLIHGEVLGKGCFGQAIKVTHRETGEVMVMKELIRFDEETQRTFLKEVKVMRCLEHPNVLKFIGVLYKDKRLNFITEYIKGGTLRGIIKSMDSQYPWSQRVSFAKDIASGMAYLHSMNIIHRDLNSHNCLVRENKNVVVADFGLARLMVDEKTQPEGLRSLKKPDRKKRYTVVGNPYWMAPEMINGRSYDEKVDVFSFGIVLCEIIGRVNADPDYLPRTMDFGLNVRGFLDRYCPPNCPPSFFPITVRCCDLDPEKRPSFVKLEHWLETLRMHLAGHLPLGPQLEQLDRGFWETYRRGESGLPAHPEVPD

Structure (SMILES)	IC50 [1]	microsomal CLint at 2 μM [2]	IC50 [3]	microsomal CLint at 2 μM [4]	Microsomal CLint Rat [4]	Papp [10]	further results
CCCCN(Cc1ccc(N2CCNCC2)cc1)C(=O)c1ccc(S(=O)(=O)Nc2ccccc2)cc1 [Compound 49, N-Butyl-4-(N-phenylsulfamoyl)-N-(4-(piperazin-1-yl)benzyl)benzamide]	2.29 µM	50 µL/min/mg	> 10 µM	56 µL/min/mg	–	–	–
CCCCN(Cc1ccc2[nH]ccc2c1)C(=O)c1ccc(S(=O)(=O)Nc2ccccc2)cc1 [Compound 51, N-Butyl-N-(1H-indol-5-ylmethyl)-4-(phenylsulfamoyl)benzamide]	–	121 µL/min/mg	–	357 µL/min/mg	–	–	solubility at 24 h [5]: 3 µM (≈ 1.38 µg/mL); Cmax at 1 h ([6]; po, 3 mg/kg): 0.0046 µg/mL; Tmax at 1 h ([6]; po, 3 mg/kg): 60 min; bioavailability at 1 h ([6]; po, 3 mg/kg): 2%; Kp at 1 h [7]: 0.4; Kp uu at 1 h [7]: < 0.03; CLint scaled [8]: 4.07 L/h/kg; AUC(0-inf) at 1 h ([8]; 1 mg/kg): 0.247 µg·h/mL; Vd at 1 h ([8]; 1 mg/kg): 2.3 L/kg; half-life at 1 h ([8]; 1 mg/kg): 30 min; fubrain [9]: < 0.1%; fuplasma [9]: 1.3%
N#CCCN(Cc1ccncc1)C(=O)c1ccc(S(=O)(=O)Nc2ccccc2)cc1 [Compound 55, N-(2-Cyanoethyl)-4-(phenylsulfamoyl)-N-(4-pyridylmethyl)benzamide]	–	32 µL/min/mg	–	81 µL/min/mg	–	–	CLint scaled [8]: 0.99 L/h/kg; AUC(0-inf) at 1 h ([8]; 0.2 mg/kg): 0.217 µg·h/mL; Vd at 1 h ([8]; 0.2 mg/kg): 0.4 L/kg; half-life at 1 h ([8]; 0.2 mg/kg): 18 min
O=C(c1ccc(S(=O)(=O)Nc2ccccc2)cc1)N(CCCn1ccnc1)Cc1ccccc1 [Compound 56, N-Benzyl-N-(3-imidazol-1-ylpropyl)-4-(phenylsulfamoyl)benzamide]	0.0182 µM	80 µL/min/mg	0.347 µM	158 µL/min/mg	–	–	–
O=C(c1ccc(S(=O)(=O)Nc2ccccc2)cc1)N(Cc1ccccc1)C1CC1 [Compound 58, N-Benzyl-N-cyclopropyl-4-(phenylsulfamoyl)benzamide]	0.0468 µM	396 µL/min/mg	1.07 µM	–	Rapid	–	–
CC(C)CN(Cc1ccccc1)C(=O)c1ccc(S(=O)(=O)Nc2ccccc2)cc1 [Compound 59, N-Benzyl-N-isobutyl-4-(phenylsulfamoyl)benzamide]	0.0209 µM	–	1.02 µM	–	Rapid	–	Microsomal CLint Human ([2]; human microsomes, 2 μM compound): Rapid
O=C(c1ccc(S(=O)(=O)Nc2ccccc2)cc1)N(Cc1ccccc1)CC1(Cn2ccnc2)CC1 [Compound 60, N-Benzyl-N-[[1-(imidazol-1-ylmethyl)cyclopropyl]methyl]-4-(phenylsulfamoyl)benzamide]	0.0191 µM	109 µL/min/mg	0.407 µM	395 µL/min/mg	–	–	–
O=C(c1ccc(S(=O)(=O)Nc2ccccc2)cc1)N(Cc1ccc2[nH]ccc2c1)CC1CC1 [Compound 61, N-(Cyclopropylmethyl)-N-(1H-indol-5-ylmethyl)-4-(phenylsulfamoyl)benzamide]	0.011 µM	288 µL/min/mg	0.011 µM	802 µL/min/mg	–	–	–
O=C(c1ccc(S(=O)(=O)Nc2ccccc2)cc1)N(Cc1ccc2ncoc2c1)CC1CC1 [Compound 62, N-(1,3-Benzoxazol-6-ylmethyl)-N-(cyclopropylmethyl)-4-(phenylsulfamoyl)benzamide]	0.00646 µM	263 µL/min/mg	0.0955 µM	–	Rapid	–	–
O=C(c1ccc(S(=O)(=O)Nc2ccccc2)cc1)N(Cc1ccc(Br)cn1)CC1CC1 [Compound 63, N-[(5-Bromo-2-pyridyl)methyl]-N-(cyclopropylmethyl)-4-(phenylsulfamoyl)benzamide]	0.0257 µM	307 µL/min/mg	0.0191 µM	–	Rapid	–	–
C[C@@H](c1ccccc1)N(CC1CC1)C(=O)c1ccc(S(=O)(=O)Nc2ccccc2)cc1 [Compound 64, (S)-N-(Cyclopropylmethyl)-N-(1-phenylethyl)-4-(N-phenylsulfamoyl)benzamide]	0.1 µM	774 µL/min/mg	0.24 µM	–	Rapid	–	–
C[C@H](c1ccccc1)N(CC1CC1)C(=O)c1ccc(S(=O)(=O)Nc2ccccc2)cc1 [Compound 65, (R)-N-(Cyclopropylmethyl)-N-(1-phenylethyl)-4-(N-phenylsulfamoyl)benzamide]	1.07 µM	419 µL/min/mg	4.9 µM	–	Rapid	–	–
O=C(c1ccc(S(=O)(=O)Nc2ccccc2)cc1)N(Cc1ccc(F)cn1)CC1CC1 [Compound 71, N-(Cyclopropylmethyl)-N-((5-fluoropyridin-2-yl)methyl)-4-(N-phenylsulfamoyl)benzamide]	–	–	–	–	Rapid	211 nm/s	microsomal CLint at 0.5 h, 2 µM [2]: 282 µL/min/mg
O=C(c1ccc(S(=O)(=O)Nc2ccccc2)cc1)N(Cc1ccc(NCCO)cn1)CC1CC1 [Compound 74, N-(Cyclopropylmethyl)-N-[[5-(2-hydroxyethylamino)-2-pyridyl]methyl]-4-(phenylsulfamoyl)benzamide]	–	–	–	–	–	–	Cmax at 1 h ([6]; po, 3 mg/kg): 0.0508 µg/mL; Tmax at 1 h ([6]; po, 3 mg/kg): 24 min; bioavailability at 1 h ([6]; po, 3 mg/kg): 15%; microsomal CLint at 0.5 h, 2 µM [2]: 42 µL/min/mg; CLint scaled [8]: 3.11 L/h/kg; AUC(0-inf) at 1 h ([8]; 1 mg/kg): 0.322 µg·h/mL; Vd at 1 h ([8]; 1 mg/kg): 1.8 L/kg; half-life at 1 h ([8]; 1 mg/kg): 42 min; IC50 [11]: 0.661 µM; fubrain [9]: 2.8%; fuplasma [9]: 8.0%; microsomal CLint at 0.5 h, 2 µM [4]: 114 µL/min/mg
COCCNc1ccc(CN(CC2CC2)C(=O)c2ccc(S(=O)(=O)Nc3ccccc3)cc2)nc1 [Compound 75, N-(Cyclopropylmethyl)-N-[[5-(2-methoxyethylamino)-2-pyridyl]methyl]-4-(phenylsulfamoyl)benzamide]	–	–	–	–	–	83 nm/s	solubility at 24 h [5]: 28 µM (≈ 13.8 µg/mL); Cmax at 1 h ([6]; ip, 10 mg/kg): 0.134 µg/mL; Tmax at 1 h ([6]; ip, 10 mg/kg): 18 min; bioavailability ([6]; ip, 10 mg/kg): 55%; Cmax at 1 h ([6]; po, 3 mg/kg): 0.0168 µg/mL; Tmax at 1 h ([6]; po, 3 mg/kg): 24 min; bioavailability at 1 h ([6]; po, 3 mg/kg): 13%; microsomal CLint at 0.5 h, 2 µM [2]: 175 µL/min/mg; CLint scaled [8]: 22.4 L/h/kg; AUC(0-inf) at 1 h ([8]; 0.5 mg/kg): 0.0226 µg·h/mL; Vd at 1 h ([8]; 0.5 mg/kg): 10.9 L/kg; half-life at 1 h ([8]; 0.5 mg/kg): 24 min; IC50 [11]: 0.0776 µM; fubrain [9]: 2.2%; fuplasma [9]: 4.7%; microsomal CLint at 0.5 h, 2 µM [4]: 327 µL/min/mg
O=C(c1ccc(S(=O)(=O)Nc2ccccc2)cc1)N(Cc1ccc(NC2COC2)cn1)CC1CC1 [Compound 76, N-(Cyclopropylmethyl)-N-[[5-(oxetan-3-ylamino)-2-pyridyl]methyl]-4-(phenylsulfamoyl)benzamide]	–	–	–	–	–	17 nm/s	microsomal CLint at 0.5 h, 2 µM [2]: 71 µL/min/mg; microsomal CLint at 0.5 h, 2 µM [4]: 22 µL/min/mg
CN(CCO)c1ccc(CN(CC2CC2)C(=O)c2ccc(S(=O)(=O)Nc3ccccc3)cc2)nc1 [Compound 77, N-(Cyclopropylmethyl)-N-[[5-[2-hydroxyethyl(methyl)amino]-2-pyridyl]methyl]-4-(phenylsulfamoyl)benzamide]	–	109 µL/min/mg	–	–	Rapid	5 nm/s	–
O=C(c1ccc(S(=O)(=O)Nc2ccccc2)cc1)N(Cc1ccc(CCc2nnn[nH]2)cn1)CC1CC1 [Compound 79, N-(Cyclopropylmethyl)-4-(phenylsulfamoyl)-N-[[5-[2-(1H-tetrazol-5-yl)ethyl]-2-pyridyl]methyl]benzamide]	–	22 µL/min/mg	–	12 µL/min/mg	–	1 nm/s	Caco-2 ER [12]: 103
Cc1nc(CN(CC2CC2)C(=O)c2ccc(S(=O)(=O)Nc3ccccc3)cc2)ccc1NCCO [Compound 82, N-(Cyclopropylmethyl)-N-[[5-(2-hydroxyethylamino)-6-methyl-2-pyridyl]methyl]-4-(phenylsulfamoyl)benzamide]	–	97 µL/min/mg	–	221 µL/min/mg	–	6 nm/s	Caco-2 ER [12]: 81
Cc1cc(CN(CC2CC2)C(=O)c2ccc(S(=O)(=O)Nc3ccccc3)cc2)ncc1NCCO [Compound 83, N-(Cyclopropylmethyl)-N-[[5-(2-hydroxyethylamino)-4-methyl-2-pyridyl]methyl]-4-(phenylsulfamoyl)benzamide]	–	–	–	–	–	5 nm/s	microsomal CLint at 0.5 h, 2 µM [2]: 130 µL/min/mg; microsomal CLint at 0.5 h, 2 µM [4]: 171 µL/min/mg
CN(c1ccccc1)S(=O)(=O)c1ccc(C(=O)N(Cc2ccc(NCCO)cn2)CC2CC2)cc1 [Compound 84, N-(Cyclopropylmethyl)-N-[[5-(2-hydroxyethylamino)-2-pyridyl]methyl]-4-[methyl(phenyl)sulfamoyl]benzamide]	–	344 µL/min/mg	–	409 µL/min/mg	–	57 nm/s	Caco-2 ER [12]: 12
O=C(c1ccc(S(=O)(=O)Nc2ccccc2)cc1)N(Cc1ccc(OCCO)cc1)CC1CC1 [Compound 86, N-(Cyclopropylmethyl)-N-[[4-(2-hydroxyethoxy)phenyl]methyl]-4-(phenylsulfamoyl)benzamide]	–	–	–	–	–	150 nm/s	solubility at 24 h [5]: 6 µM (≈ 2.88 µg/mL); microsomal CLint at 0.5 h, 2 µM [2]: 119 µL/min/mg; IC50 [11]: 0.0562 µM; fubrain [9]: 0.9%; fuplasma [9]: 1.4%; microsomal CLint at 0.5 h, 2 µM [4]: 420 µL/min/mg
